According to patent publication US12144800B2 (priority 2015, dated 2024):
Where two headings read alike, the source gives them in different places.

Key:
C. perfringens spores [1] = test: microbe, parasite or virus in culture; conditions: Clostridium perfringens, read-out: IC50, inhibition of C. perfringens spore germination
C. perfringens spores [2] = assay type: cell-based, Clostridium perfringens; conditions: for induction of spore germination by bile salt in the presence of amino acids: BA pathway; for triggering of spore germination by detergent: even in the presence of excess L-alanine
C. perfringens spores [3] = assay type: cell-based, Clostridium perfringens; conditions: for effect of added salt on AA pathway response / effect of added salt on BA germination pathway: potassium phosphate or sodium phosphate buffer; for effect of added salt on AA pathway response / effect of added salt on BA pathway / effect of added salt on BA germination pathway: 150 mM salt; for effect of added salt on BA pathway: spores resuspended in sodium phosphate buffer
C. perfringens spores [4] = conditions: with L-alanine, in place of L-phenylalanine
C. perfringens spores [5] = conditions: spore germination inhibition
C. perfringens strains = assay type: cell-based, Clostridium perfringens
[6] = in the presence of theobromine, strains 1936, 1473, 1882

Compound: CSc1nc2ccccc2s1 [2-MTB, 2-methylthiobenzothiazole]
- IC50 (C. perfringens spores [1]): 74 µM

Compound: C[C@H](CCC(=O)O)[C@H]1CC[C@H]2[C@@H]3[C@H](O)C[C@@H]4C[C@H](O)CC[C@]4(C)[C@H]3C[C@H](O)[C@]12C [Cholate]
- induction or inhibition of spore germination in the presence of L-alanine (C. perfringens spores [2]): did not induce or inhibit

Compound: C[C@H](CCC(=O)NCC(=O)O)[C@H]1CC[C@H]2[C@@H]3[C@H](O)C[C@@H]4C[C@H](O)CC[C@]4(C)[C@H]3C[C@H](O)[C@]12C [Glycocholate]
- induction of spore germination by bile salt in the presence of amino acids (C. perfringens spores [2]): induced C. perfringens spore germination

Compound: [Br-].[K+] [KBr]
- effect of added salt on AA pathway response (C. perfringens spores [3]): did not affect
- effect of added salt on BA pathway (C. perfringens spores [3]): induced the BA pathway

Compound: [Cl-].[K+] [KCl]
- effect of added salt on AA pathway response (C. perfringens spores [3]): did not affect
- effect of added salt on BA pathway (C. perfringens spores [3]): induced the BA pathway

Compound: N[C@@H](Cc1ccc(O)cc1)C(=O)O [L-tyrosine]
- germination rate slower than with L-phenylalanine (C. perfringens spores [4]): more than 50%

Compound: COc1nc2ccccc2s1 [MOB, 2-methoxy benzothiazole]
- inhibitory concentration compared with other analogs (C. perfringens spores [5]): approximately ten times lower than other analogs
- IC50 (C. perfringens spores [1]): 98 µM

Compound: [Br-].[Na+] [NaBr]
- effect of added salt on AA pathway response (C. perfringens spores [3]): did not affect
- effect of added salt on BA germination pathway (C. perfringens spores [3]): did not affect

Compound: [Cl-].[Na+] [NaCl]
- effect of added salt on AA pathway response (C. perfringens spores [3]): did not affect
- effect of added salt on BA germination pathway (C. perfringens spores [3]): did not affect

Compound: CCCCCCCCCCCCOS(=O)(=O)[O-].[Na+] [SDS]
- triggering of spore germination by detergent (C. perfringens spores [2]): Neither detergent was able to trigger

Compound: C[C@H](CCC(=O)O)[C@H]1CC[C@H]2[C@@H]3[C@H](O)C[C@@H]4C[C@H](O)CC[C@]4(C)[C@H]3CC[C@]12C [chenodeoxycholate]
- induction or inhibition of spore germination in the presence of L-alanine (C. perfringens spores [2]; FIG. 3B): did not induce or inhibit

Compound: O=C([O-])O.[K+] [potassium bicarbonate]
- effect of added bicarbonate on germination rate (C. perfringens spores [3]): increased germination rate

Compound: OC[C@H]1O[C@H](OC[C@H]2O[C@H](O[C@]3(CO)O[C@H](CO)[C@@H](O)[C@@H]3O)[C@H](O)[C@@H](O)[C@@H]2O)[C@H](O)[C@@H](O)[C@H]1O [raffinose]
- sporulation with the carbon source (C. perfringens strains; 0.5% carbon source in solid medium): preferred carbon source

Compound: O=C([O-])O.[Na+] [sodium bicarbonate]
- effect of added bicarbonate on germination rate (C. perfringens spores [3]): increased germination rate

Compound: C[C@H](CCC(=O)NCCS(=O)(=O)O)[C@H]1CC[C@H]2[C@@H]3[C@H](O)C[C@@H]4C[C@H](O)CC[C@]4(C)[C@H]3CC[C@]12C [taurochenodeoxycholate]
- induction of spore germination by bile salt in the presence of amino acids (C. perfringens spores [2]): induced C. perfringens spore germination

Compound: C[C@H](CCC(=O)NCCS(=O)(=O)O)[C@H]1CC[C@H]2[C@@H]3CC[C@@H]4C[C@H](O)CC[C@]4(C)[C@H]3C[C@H](O)[C@]12C [taurodeoxycholate]
- induction of spore germination by bile salt in the presence of amino acids (C. perfringens spores [2]): induced C. perfringens spore germination

Compound: Cn1cnc2c1c(=O)[nH]c(=O)n2C [theobromine]
- time at which spores could be detected (C. perfringens strains; [6]): two days after plating
- time of maximum sporulation levels (C. perfringens strains; [6]): 5-7 days post-plating
- effect of theobromine on sporulation level (C. perfringens strains; strain 1473): decreased
- Theobromine, effect on sporulation (C. perfringens strains; strain 1473, inoculum BHI, peptone #3): Increases sporulation
- Theobromine, effect on sporulation (C. perfringens strains; strain 1473, inoculum Thioglycollate, peptone #1): Reduces sporulation
- Theobromine, effect on sporulation (C. perfringens strains; strain 1521, inoculum Thioglycollate, peptone #1): Required for sporulation
- effect of theobromine on sporulation level (C. perfringens strains; strain 1882): increased
- Theobromine, effect on sporulation (C. perfringens strains; strain 1882, inoculum BHI, peptone #2): Increases sporulation
- effect of theobromine on sporulation level (C. perfringens strains; strain 1936): remained unchanged
- Theobromine, effect on sporulation (C. perfringens strains; strain 1936, inoculum BHI, peptone #1): No effect on sporulation
- Theobromine, effect on sporulation (C. perfringens strains; strain 4064, inoculum BHI, peptone #1): Required for sporulation
- Theobromine, effect on sporulation (C. perfringens strains; strain 4104, inoculum BHI, peptone #3): Required for sporulation
- Theobromine, effect on sporulation (C. perfringens strains; strain 4104, inoculum Thioglycollate, peptone #3): Required for sporulation
- Theobromine, effect on sporulation (C. perfringens strains; strain 4121, inoculum Thioglycollate, peptone #2): Required for sporulation
- effect on sporulation times (C. perfringens strains; strains 1936, 1473, 1882): reduced sporulation times
- effect of theobromine on sporulation (C. perfringens strains; strains 4104, 4064, 1521, 4121, solid media): only sporulated robustly when theobromine was added

Compound: Triton-X-100
- triggering of spore germination by detergent (C. perfringens spores [2]): Neither detergent was able to trigger

Compound: deoxycholate
- induction or inhibition of spore germination in the presence of L-alanine (C. perfringens spores [2]; FIG. 3B): did not induce or inhibit
